Data reported in patent publication US4820834A, “Benzodiazepine analogs” (priority 1987, dated 1989).
Where two headings read alike, the source gives them in different places.

What was measured:
CCK receptor (pancreas) = biological target: T1, CCK receptor (pancreas) (Rattus norvegicus, UniProt P30551); test: CCK Receptor Binding (Pancreas): inhibition of ^125 I-CCK-33 binding; design: species or system Male Sprague-Dawley rats; details: rat pancreas membranes, ^125 I-CCK-33, 37° C., 30 minutes
T1 construct: The whole pancreas was dissected free of fat tissue and was homogenized; from tissue; host or cells: rat pancreas membranes (Sprague-Dawley)
T1 sequence (P30551 1-444): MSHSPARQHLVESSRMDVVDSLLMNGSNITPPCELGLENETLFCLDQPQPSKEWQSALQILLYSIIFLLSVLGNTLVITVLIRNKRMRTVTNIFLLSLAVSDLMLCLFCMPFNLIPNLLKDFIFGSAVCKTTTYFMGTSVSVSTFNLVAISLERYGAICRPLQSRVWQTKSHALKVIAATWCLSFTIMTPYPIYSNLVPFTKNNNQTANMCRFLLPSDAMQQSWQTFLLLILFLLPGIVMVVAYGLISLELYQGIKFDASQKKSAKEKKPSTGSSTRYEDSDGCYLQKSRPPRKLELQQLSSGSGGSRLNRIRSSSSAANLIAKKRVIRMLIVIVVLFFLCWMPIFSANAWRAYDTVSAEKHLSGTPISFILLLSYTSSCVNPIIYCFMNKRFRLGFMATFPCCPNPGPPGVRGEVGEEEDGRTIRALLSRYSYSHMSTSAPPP
Outline: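 Bound ^125I-CCK-33 was counted in pellets after a 30 min, 37° C incubation followed by centrifugation. Membranes came from male Sprague-Dawley rat pancreas, assayed in Tris HCl pH 7.7 containing DTT, bacitracin, PMSF and o-phenanthroline. For Scatchard analysis, tracer was diluted with rising unlabelled CCK-33.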

[1] = biological target: T2, CCK receptor (brain, cerebral cortex) (Cavia porcellus, UniProt H0VZC5); test: biochemical; assay type: binding, Male Hartley guinea pigs; details: guinea pig cerebral cortex, ^125 I-CCK-33, 25° C., 2 hours
T2 construct: Cerebral cortex was dissected and used as a receptor source; from tissue; host or cells: guinea pig cerebral cortex membranes (male Hartley)
T2 sequence (H0VZC5 1-426): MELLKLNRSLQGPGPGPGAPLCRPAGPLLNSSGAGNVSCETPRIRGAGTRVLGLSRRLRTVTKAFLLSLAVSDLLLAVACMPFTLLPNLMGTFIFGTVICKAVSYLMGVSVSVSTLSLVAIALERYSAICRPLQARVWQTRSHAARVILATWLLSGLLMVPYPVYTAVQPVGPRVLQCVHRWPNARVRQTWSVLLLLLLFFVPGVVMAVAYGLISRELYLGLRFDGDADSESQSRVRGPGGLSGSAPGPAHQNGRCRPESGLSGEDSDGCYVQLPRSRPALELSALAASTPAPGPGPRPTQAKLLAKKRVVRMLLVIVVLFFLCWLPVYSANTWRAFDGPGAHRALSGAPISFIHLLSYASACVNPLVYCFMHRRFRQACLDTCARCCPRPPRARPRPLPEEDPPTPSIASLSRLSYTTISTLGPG
Outline: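 Binding of [radiolabeled] CCK-33 measured by gamma counting of centrifuged pellets after 2 h at 25°C. Membranes came from guinea pig brain cortex, suspended in 10 mM HEPES, 5 mM MgCl2, 1 mM EGTA, 0.25 mg/ml bacitracin, 0.4% BSA.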

[2] = biological target: T3, Gastrin receptor (gastric glands) (Cavia porcellus, UniProt H0VZC5); test: Gastrin Receptor Binding in Guinea Pig Gastric Glands; design: species or system guinea pig (male Hartley); details: 25° C., 30 minutes
T3 construct: The washed guinea pig gastric glands prepared as above were resuspended; from tissue; host or cells: guinea pig gastric mucosal glands (male Hartley)
T3 sequence (H0VZC5 1-426): T2 sequence (H0VZC5 1-426)

[3] = read-out: IC50 ^125 I-CCK Brain
[4] = ^125 I-gastrin, read-out: IC50 ^125 I-Gastrin Gastric Glands
[5] = read-out: IC50 ^125 I-CCK Pancreas
[6] = IC50 ^125 I-Gastrin Gastric Glands

For `Cc1ccc(C2=NC(NC(=O)c3cc4ccccc4[nH]3)C(=O)N(C)c3ccccc32)cc1` (stereo not drawn) [Example 291, 3-N-(2,3-Dihydro-1-methyl-2-oxo-5-(p-tolyl)-1H-1,4-benzodiazepin-3-yl)-1H-indole-2-carboxamide], which IC50 (CCK receptor (pancreas); IC50 ^125 I-CCK Pancreas) is on record?
The IC50 was 0.08 nM.

And the IC50 [1, 3]?
Its IC50 is 380 nM.

What about the IC50 [2, 4] of the same compound?
Its IC50 is 710 nM.

For `COc1cccc(NC(=O)NC2N=C(c3ccc(C)cc3)c3ccccc3N(C)C2=O)c1` (stereo not drawn) [Example 292, N-(3-Methoxyphenyl)-N'-(2,3-dihydro-1-methyl-2-oxo-5-(p-tolyl)-1H-1,4-benzodiazepin-3-yl)-urea], which IC50 (CCK receptor (pancreas); IC50 ^125 I-CCK Pancreas) is on record?
Its IC50 is 1 nM.

What about the IC50 [1, 3] of the same compound?
Its IC50 is 3.5 nM.

And the IC50 [2, 4]?
The IC50 was 11.5 nM.

`Cc1ccc(NC(=O)N[C@@H]2N=C(c3ccccc3)c3ccccc3N(C)C2=O)cc1` [Example 293, (R)-N-(2,3-Dihydro-1-methyl-2-oxo-5-phenyl-1H-1,4-benzodiazepin-3-yl)-N'-(4-methylphenyl)-urea] was tested. Which IC50 (CCK receptor (pancreas); [5]) did it give?
The IC50 was 3100 nM.

What about the IC50 ([1]; IC50 ^125 I-CCK Brain) of the same compound?
The IC50 was 6.5 nM.

And the IC50 [2, 6]?
Its IC50 is 2.5 nM.

With `Cc1ccc2c(c1)N(C)C(=O)C(NC(=O)c1cc3ccccc3[nH]1)N=C2c1ccccc1` (stereo not drawn) [Example 294, 3-N-(2,3-Dihydro-1,8-dimethyl-2-oxo-5-phenyl-1H-1,4-benzodiazepin-3-yl)-1H-indole-2-carboxamide] as the compound, how does the IC50 (CCK receptor (pancreas); IC50 ^125 I-CCK Pancreas) read?
The IC50 was 0.1 nM.

And the IC50 [1, 3]?
Its IC50 is 38 nM.

What about the IC50 [2, 4] of the same compound?
Its IC50 is 40 nM.

With `COc1cccc(NC(=O)NC2N=C(c3ccccc3)c3ccc(C)cc3N(C)C2=O)c1` (stereo not drawn) [Example 295, N-(3-Methoxyphenyl)-N'-(2,3-dihydro-1,8-dimethyl-2-oxo-5-phenyl-1H-1,4-benzodiazepin-3-yl)-urea] as the compound, how does the IC50 (CCK receptor (pancreas); IC50 ^125 I-CCK Pancreas) read?
The IC50 was 3 nM.

What about the IC50 [1, 3] of the same compound?
Its IC50 is 15 nM.

And the IC50 [2, 4]?
The IC50 was 34 nM.

With `CN1C(=O)[C@H](NC(=O)Nc2cccc(Cl)c2)N=C(c2ccccc2)c2ccccc21` [Example 296, (R)-N-(2,3-Dihydro-1-methyl-2-oxo-5-phenyl-1H-1,4-benzodiazepin-3-yl)-N'-(3-chloroohenyl)-urea] as the compound, how does the IC50 (CCK receptor (pancreas); [5]) read?
Its IC50 is 290 nM.

What about the IC50 ([1]; IC50 ^125 I-CCK Brain) of the same compound?
Its IC50 is 7.5 nM.

What about the IC50 [2, 6] of the same compound?
The IC50 was 2.2 nM.

Which results are given for `CN1C(=O)C(CC(=O)Nc2ccc(Cl)cc2)N=C(c2ccccc2)c2ccccc21` (stereo not drawn) [Example 297, N-(4-Chlorophenyl)-2,3-dihydro-1-methyl-2-oxo-5-phenyl-1H-1,4-benzodiazepine-3-acetamide]?
IC50 (CCK receptor (pancreas); IC50 ^125 I-CCK Pancreas): 1800 nM; IC50 [1, 3]: 3700 nM; IC50 [2, 4]: 5200 nM
